Earlier results, collected in patent US20070166389A1, “Stabilized lyophilized blood platelets” (priority 2005, published 2007).

What was measured:
[1] = dosages effective for increasing bile salt secretion
sickle erythrocytes = settings: glyceraldehyde treatment in vitro

Structure (SMILES) | abnormal symptoms in liver or kidney [1] | deleterious effects of the treatment (sickle erythrocytes) | life span in vivo of sickle erythrocytes (sickle erythrocytes)
COC(=O)C1=CO[C@@H](O)[C@@H]2C(CO)=CC[C@H]12 [genipin] | do not cause any abnormal symptoms in the liver or kidney |  | 
O=CC(O)CO (stereo not drawn) [glyceraldehyde] |  | failed to show any deleterious effects | prolongation of the life span of sickle erythrocytes
